Patent US5661138A, “(o-Acyl-p-N-acylamino-phenyl)-O-phosphoethanolamines” (Clarion Pharmaceutical, Inc., priority 1996, dated 1997)

What was measured:
[1] = system: TNB-induced inflammation in rat colon; assay: In Vivo Assay--Rat Ulcerative Colitis Model (TNB-induced); parameters: species or system rat (male Sprague-Dawley); conditions: 150 mg/kg, rectal, once a day for 5 days; FIG. 2
Source text: The model described in this section provides a tool for investigating the effect of compounds in colonic intimation. This model and the experimental methods are described in the following reference: Luck, Michael S. and Bass, Paul, (1993), "Effect of Epidermal Growth Factor on Experimental Colitis in the Rat," J. Pharmacol. Exp. Therap. 264:984-990. In this assay, inflammatory lesions in the rat colon are induced by the intracolonic administration of 2,4,6-trinitrobenzenesulfonic acid.
1. Rats: Male Sprague-Dawley, 185-195 g obtainable from Harlan Sprague Dawley, Indianapolis, Ind., USA;
a. Prepare 100 mg/mL 5-aminosalicylic acid (5-ASA), 50 mg/mL CPR-2015, and 150 mg/mL CPR-2015 in saline;
b. Divide 34 rats into 4 groups of 8 rats each and one group of two rats;
c. Leave the group with two rats completely untreated;
d. Treat the other four groups of rats with 200 μl of Saline, 500 μl of 100 mg/mL 5-ASA, 200 μl of 50 mg/mL CPR-2015, or 200 μl of 150 mg/mL CPR-2015. These treatments are administered rectally with an 8-cm catheter;
e. After one hour, treat the above four groups of rats rectally with 500 μl of 100 mg/mL 2,4,6-trinitrobenzenesulfonic acid (TNB) in 30% ethanol and 70% saline;
f. Repeat the treatments described in paragraph 2(d) once a day for a total of 5 days;
g. On the 6th day, euthanize the rates in a CO2 chamber; and
h. […]

[2] = system: Mouse Macrophage RAW 264.7; assay: In Vitro Chemiluminescence Assay: inhibition of respiratory burst in PMA-stimulated mouse macrophage RAW 264.7; type: cell-based
Source text: The cells are capable of phagocytosis and undergo an oxidative burst in response to appropriate signals. Agents that inhibit the activation of these cell in vitro are therefore inhibitors of critical steps in inflammatory processes.
Activation of macrophages and other phagocytic cell types initiates a cascade of actions that include increased oxygen consumption (respiratory burst) and production of oxygen radicals. These events can be measured m a variety of ways, including chemiluminescence based on the addition of luminol (see M. A. Trush et al, (1978), The generation of chemiluminescence by phagocytic cells, Methods in Enzymology 56:462-494). Because chemiluminescence is induced by the increased production of oxygen radicals that are thought to be important in intracellular killing of bacteria, chemiluminescence has long been used as an index of phagocytic cell activity. In addition, oxygen radical production is associated with inflammatory responses and may have adverse consequences in non-infectiousinflammation. For this reason, macrophage activation is of critical importance in studies of the inflammatory process. Agents that reduce macrophage activation are likely to have utility as anti-inflammatory agents.
1. Cell line: Raw 264.7 (ATCC TIB-71, attachment dependent).
2. Culture medium: Dulbecco's Modified Eagle's Medium (DMEM) with 10% Fetal Bovine Serum (FBS).
3. Standard protocol for culturing cell lines: in T-75 or T-150 flasks; 37° C.; 95% air, 5% CO2; 100% humidity;
a. Cell line is passaged when approximately 80% confluent; with trypsin (1 mg/mL) and ethylenediaminetetraacetic acid (EDTA) (1 mM in Ca-Mg free Hank's balanced salt solution); at a 1:4 to 1:5 split;
b. All procedures are performed aseptically in a class II biological safety cabinet using standard BL-2 containment procedures. In order to prevent genetic drift in stock cell lines, fresh cultures are prepared at approximately monthly intervals with cells thawed from liquid nitrogen storage.
a. After cell passage, count cells with a hemacytometer;
b. Adjust cell concentration to approximately 1,000,000 cells per mL;
c. Suspend cells in DMEM lacking phenol red and without FBS;
d. Pipette 1 mL of cell suspension into a standard luminometer cuvette (12×75 mm), commercially obtainable from Analytical Luminescence Laboratories, San Diego, Calif., USA;
e. Add luminol to final concentration of 0.2 mM;
f. Add test compound dissolved in phosphate buffered saline (PBS) for final concentration levels ranging from 0 to 10 μM;
g. Add 100 nanograms of phorbol myristate acetate (PMA): and
h. Wait 1 minute and read photo counts (i.e., luminescence) on a Monolight 2010 luminometer available from Analytical Luminescence Laboratories, San Diego.
Background--no test compound present; no PMA present;
Control--no test compound present;
Calculate: [formula] where L is luminescence. 6.

[3] = system: carrageenan-induced paw edema in the rat; assay: In Vivo Assay--Rat Carrageenan-Induced Paw Edema; parameters: species or system rat (male Sprague-Dawley); conditions: intraperitoneal, 6 hours; FIG. 3
Source text: The model, which provides a tool for investigating the effect of compounds on paw intimation, is described in the following reference: Bartlett, R. R., et al. (1993), "Effects of leflunomide on immune responses and models of inflammation," Springer Semin Immunopathol 14:381-394. It essentially consists of the following:
1. Rats: Male Sprague-Dawley, approximately 165 g obtainable from Harlan Sprague Dawley, Indianapolis, Ind., USA;
a. Measure the volume of the left hind paw by strain gauge/fluid immersion;
b. Inject 100 μL of 1% carrageenan in saline intradermally into the left hind foot pad;
c. Inject vehicles or test compounds dissolved in either saline (CPR-2015) or 50% saline and 50% ethanol (indomethacin, dexamethasone, and CPR-2014) intraperitoneally, placing 3-5 rats in each treatment group;
d. Six hours later, measure the volume of the left hind paw by strain gauge/fluid immersion;
e. Calculate average percent increase in paw volume for each treatment group.

[4] = system: PMA-induced inflammation in mouse ears; assay: In Vivo Assay--Mouse Ear model, PMA-induced inflammation; parameters: species or system mouse (male CD-1); conditions: concentration tested 5%, topical to ear, 6 hours; FIG. 1
Experimental: A common in vivo model for the evaluation of anti-inflammatory agents is PMA-induced inflammation in mouse ears. This method is described in "Pharmacological Methods in the Control of Inflammation," Joseph Y. Chang and Alan J. Lewis (eds), Alan R. Liss, Inc., New York, pp 221-223 (1989). In this assay, edema, which is a characteristic of inflammation, is quantified by determining ear thickness or ear weight approximately 6 hours after applying PMA to the ear.
1. Mice: Male CD-1, 21-24 g (Product Number 3002) obtainable from Harlan Sprague Dawley, Indianapolis, Ind., USA.
a. Prepare 0.01% (w/v) PMA in a mixture of equal volumes of acetone and ethanol;
b. Prepare 0.01% (w/v) PMA and 5% (w/v) test compound in a mixture of equal volumes of acetone and ethanol;
c. Divide 12 mice into 4 groups of 3 mice each;
d. Treat the first group of mice by applying 20 μL of a mixture of equal volumes of acetone and ethanol (vehicle) to the left ear using a micropipetter;
e. Treat the second group of mice by applying 20 μL of PMA solution to the left ear;
f. Treat the other two groups of mice by applying 20 μL of PMA/test compound solution to the left ear;
g. Wait 6 hours and euthanize the mice in a CO2 chamber;
h. Cut the ears and punch out circles of 6-mm diameter; and
i. Measure the weight of three appropriate ear punches in the same group together.

Structure (SMILES)	inhibition of TNB-induced inflammation in rat colon [1]	inhibition at 0.1 µM ([2]; Mus musculus, RAW264.7, Concentration 0.1 µM, PMA-stimulated RAW 264.7, luminol chemiluminescence) [%]	inhibition at 0.3 µM ([2]; Mus musculus, RAW264.7, Concentration 0.3 µM, PMA-stimulated RAW 264.7, luminol chemiluminescence) [%]	inhibition at 1 µM ([2]; Mus musculus, RAW264.7, Concentration 1 µM, PMA-stimulated RAW 264.7, luminol chemiluminescence) [%]	inhibition at 3 µM ([2]; Mus musculus, RAW264.7, Concentration 3 µM, PMA-stimulated RAW 264.7, luminol chemiluminescence) [%]	inhibition at 10 µM ([2]; Mus musculus, RAW264.7, Concentration 10 µM, PMA-stimulated RAW 264.7, luminol chemiluminescence) [%]	inhibition of PMA-induced macrophage activation ([2]; at concentrations above 0.3 μM)	inhibition of carrageenan-induced edema in rat paw [3]	inhibition of PMA-induced inflammation in mouse ear [4]
CCCCCCCCCCCCCCCC(=O)Nc1ccc(OP(=O)([O-])OCC[N+](C)(C)C)c(C(C)=O)c1 [CPR-2015, (o-acetyl-p-N-hexadecanamido-phenyl)-O-phosphocholine]	marked inhibition	13	63	94	97	99	marked inhibition	marked inhibition	completely inhibited
CCCCCCCCCCCCCCCC(=O)Nc1ccc(O)c(C(C)=O)c1 [CPR-2014, 1-(5-hexadecanamido-2-hydroxy-phenyl)-ethanone]								marked inhibition	partially inhibited
